Experimental findings from patent US20240101563A1, “NOVEL COMPOUNDS” (AC Immune SA, priority 2022, published 2024) are described below.

In one test the test system is IL-1β. Description: Inhibition of IL-1β in an LPS/ATP induced acute peritonitis mouse model. It counts as in vivo. Conditions: BALB/c mice; dosed 30 min before LPS i.p.; ATP i.p. 120 min after LPS; PW 30 min post ATP; vs LPS-ATP, 0 mg/kg. As for the experimental part: 1.2.1 The efficacy of Example compounds 53 and 18 in an LPS/ATP-induced acute peritonitis was evaluated: LPS (Lipopolysaccharide) and ATP (Adenosine triphosphate) were administered to BALB/c mice by intraperitoneal (i.p.) injection to elicit an acute inflammatory response in the peritoneal cavity.
Mice (BALB/c mice, aged 6-8 w, females) were challenged with 50 μg/kg LPS by intraperitoneal (i.p.) injection. 120 min after LPS administration, ATP was delivered by i.p. injection at 50 mM in 200 μL. […]
Cytometric Bead Array (CBA) Assay for IL-1β detection was performed on the peritoneal wash supernatant as follows: supernatants or cytokine standards were incubated with the capture beads mixture for 1 hour at room temperature. […] After washing in Wash Buffer containing 1×PBS, blocking protein, and detergent, the beads were re-suspended and analyzed by flow cytometry.
The cytokine analysis raw data were analyzed using FACP. […] Data were expressed as the Mean±SD. […]

For test [1], the system named is NLRP3 inflammasome pathway. Description: NLRP3 inflammasome pathway activation assay, MSU stimulation, IL-1β HTRF. It counts as cell-based. To be noted: Homo sapiens, 3 h, Table 7; PMA-differentiated, LPS-primed cells; MSU 200 μg/mL for 3 h; IL-1β release; read-out: IC50 Human monocyte-like cells MSU. Summed up: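 Human monocyte-like cells differentiated overnight with 10 ng/mL PMA, primed 3 h with 10 ng/mL LPS, given compound ([…]) 30 min before 3 h stimulation with Nigericin 3.75 μM or MSU 200 μg/mL. Supernatant IL-1β quantified by HTRF; IC50 at 50% inhibition.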
On the technique in general: In TR-FRET formats the signal depends on donor and acceptor labels being close together.

Test [2] concerns NLRP3 inflammasome pathway. Description: NLRP3 inflammasome pathway activation assay, Nigericin stimulation, IL-1β HTRF. It counts as cell-based. Conditions: Homo sapiens, 3 h, Table 7; PMA-differentiated, LPS-primed cells; Nigericin 3.75 μM for 3 h; IL-1β release; read-out: IC50 Human monocyte-like cells Nigericin. As to the method: The following assays were used to determine the inhibitory activity of test compounds on the NLRP3 inflammasome pathway using common stimuli Nigericin (Invivogen) or monosodium urate crystals (MSU) (Invivogen).
Human monocyte-like cells were cultured in RPMI-1640 Glutamax medium supplemented with 10% heat inactivated FBS (Fetal Bovine Serum) and 50 U/mL penicillin-streptomycin (Life Technologies).
Human monocyte-like cells were seeded at 25000 per well in a 384-well plate and were differentiated overnight into macrophages with 10 ng/mL PMA (Phorbol Myristate Acetate). The following day, medium containing 10 ng/mL LPS (Lipopolysaccharide) was added. After 3 hours of LPS priming, concentrations of test compound in the range from […] were added 30 min prior to NLRP3 inflammasome pathway stimulation with Nigericin 3.75 μM or MSU 200 μg/mL for 3 h.
For IL-1p quantification, supernatants were analyzed using HTRF kit according to the manufacturer's instructions (Cisbio 62HIL1BPEH). Briefly, in a 384-well ProxiPlate™ microplate, 8 μl of sample was mixed, with 5 μl of Anti-IL1β Cryptate antibody (40×) and Anti-IL1β XL antibody (40×). Then, incubated overnight at RT. Reading was done using an EnVision Reader (PerkinElmer).
IC50 (concentration corresponding to 50% inhibition) were determined using GraphPad Prism 9.

As to `Cc1cc(C(F)(F)F)cc(O)c1-c1nc2nc(NC3CCN(C)C3)ccc2n1C` (racemic) [Example 18, 3-methyl-2-(1-methyl-5-((1-methylpyrrolidin-3-yl)amino)-1H-imidazo[4,5-b]pyridin-2-yl)-5-(trifluoromethyl)phenol], the “IL-1β release in peritoneal wash (PW)” value with IL-1β was “significantly reduced IL-1p release in PW in a dose response manner”.

Usually IC50 stands for the concentration needed to halve the response being measured. Turning to `Cc1cc(C(F)(F)F)cc(O)c1-c1nc2nc(OC3CCN(C)C3)cnc2n1C` (single isomer, unassigned) [Example 53, 3-methyl-2-(1-methyl-5-((1-methylpyrrolidin-3-yl)oxy)-1H-imidazo[4,5-b]pyrazin-2-yl)-5-(trifluoromethyl)phenol], the “IL-1β release in peritoneal wash (PW)” value in the test on IL-1β is recorded as “significantly reduced IL-1β release in PW in a dose response manner”. Moreover, in test [1], the IC50 was under 100 nM. Turning to `Cc1cc(C(F)(F)F)cc(O)c1-c1nc2nc(O[C@@H]3CCCN(C)C3)ccc2n1C` [Example 26, (R)-3-methyl-2-(1-methyl-5-((1-methylpiperidin-3-yl)oxy)-1H-imidazo[4,5-b]pyridin-2-yl)-5-(trifluoromethyl)phenol], the IC50 in test [2] is 100 to 1000 nM; in test [1] it was under 100 nM.

With `Cc1cc(C(F)(F)F)cc(O)c1-c1nc2nc(N[C@H]3CCCC[C@@H]3O)ccc2n1C` (single isomer, unassigned) [Example 20, 2-(5-((2-hydroxycyclohexyl)amino)-1-methyl-1H-imidazo[4,5-b]pyridin-2-yl)-3-methyl-5-(trifluoromethyl)phenol], the IC50 was over 1000 nM in test [2] and 100 to 1000 nM in test [1]. Taken in the same sequence, the figures for `CN1CCC[C@@H](Oc2ccc3c(n2)nc(-c2ccc(C(F)(F)F)cc2O)n3C)C1` [Example 25, (R)-2-(1-methyl-5-((1-methylpiperidin-3-yl)oxy)-1H-imidazo[4,5-b]pyridin-2-yl)-5-(trifluoromethyl)phenol] were 100 to 1000 nM and under 100 nM. Regarding `CCn1c(-c2c(C)cc(C(F)(F)F)cc2O)nc2nc(OCCO)ccc21` [Example 32, 2-(1-ethyl-5-(2-hydroxyethoxy)-1H-imidazo[4,5-b]pyridin-2-yl)-3-methyl-5-(trifluoromethyl)phenol], the 50% inhibitory concentration (IC50) is 100 to 1000 nM in test [2] and under 100 nM in test [1].
